How the values were obtained:
KP1005 (CTX-M-14) = assay: Potentiation of aztreonam, strain KP1005; assay type: cell-based
ec308 (SHV-5) [1] = assay: Potentiation of aztreonam, strain ec308; assay type: cell-based; conditions: minimum BLI concentration inhibiting growth with 4 μg/mL aztreonam
KP1004 (K-2) = assay: Potentiation of aztreonam, strain KP1004; assay type: cell-based; conditions: minimum BLI concentration inhibiting growth with 4 μg/mL aztreonam
ec308 (SHV-5) [2] = assay: Potentiation of tigemonam, strain ec308; assay type: cell-based; conditions: minimum BLI concentration inhibiting growth with 4 μg/mL tigemonam
EC1010 (CMY-6) = assay type: cell-based
SHV-12 = SHV-12 (Klebsiella pneumoniae, UniProt P0AD64, E235K/G234S/L31Q); assay: Inhibition of nitrocefin cleavage by purified SHV-12; assay type: biochemical; conditions: nitrocefin reporter substrate, purified enzyme; read-out: Ki (SHV-12, NCF)
Summary of the method: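 Readout: nitrocefin hydrolysis, A490 recorded every 10 sec over 10 min. Enzyme and inhibitor (varied concentrations) preincubated 10 min, RT, in reaction buffer before substrate addition.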

PAM1032/KPC-2 = assay: Biapenem potentiation in PAM1032/KPC-2 (MexAB-OprM overexpressed); assay type: cell-based, Pseudomonas aeruginosa; conditions: BLI potency to decrease biapenem MIC 64-fold, 32 to 0.5 μg/ml; efflux proficient strain
Experimental: Efflux of BLIs from Pseudomonas aeruginosa by the MexAB-OprM efflux pump was also evaluated. […] Due to expression of KPC-2 both strains became resistant to biapenem. […] Potency of BLIs to potentiate biapenem in these strains was determined. […] The ratio of MPC64 values for each BLI in PAM1032/KPC-2 (efflux proficient) and PAM1154/KPC-2 (efflux deficient) was determined to generate the Efflux Index (EI).

Chymotrypsin = molecular target: T1, Chymotrypsin (Bos taurus, UniProt P00766); assay: Serine protease inhibition: chymotrypsin; assay type: biochemical, mammalian; conditions: Table 8A, class symbols; read-out: IC50 Chymotrypsin
T1 construct: purchased Calbiochem 230832
Summary of the method: (§1)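 Rates calculated from absorbance or fluorescence monitored over 30 min after substrate addition are reported as a fraction of the no-treatment control.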

Plasmin = molecular target: T2, Plasmin (Homo sapiens, UniProt P00747); assay: Serine protease inhibition: plasmin; assay type: biochemical, mammalian; conditions: Table 8A, class symbols; read-out: IC50 Plasmin
T2 construct: Plasmin; MPBio; 19419890; purchased MPBio 19419890
Experimental: (§2) The effect of selected BLIs on the enzymatic activity of some common mammalian serine proteases was evaluated.
(§3) 50 μl of the diluted enzyme was mixed with 50 μl of inhibitor at various concentrations and 50 μl of corresponding buffer (Table 7). Reaction mixtures were incubated for 10 min at 37° C. Subsequently, 50 μl of corresponding substrate (Table 7) was added and absorbance or fluorescence was monitored for 30 min on SpectraMax M2 plate reader (Molecular Devices). 4-(2-Aminoethyl)benzenesulfonyl fluoride hydrochloride (AEBSF) and leupeptin were used as positive controls. Rates of reaction were calculated and presented relative to “no treatment” control.

Urokinase = molecular target: T3, Urokinase (Homo sapiens, UniProt P00749); assay: Serine protease inhibition: urokinase; assay type: biochemical, mammalian; conditions: Table 8A, class symbols; read-out: IC50 Urokinase
T3 construct: purchased Calbiochem 672112
Summary of the method: as §1

Chymase = molecular target: T4, Chymase (Homo sapiens, UniProt P23946); assay: Serine protease inhibition: chymase; assay type: biochemical, mammalian; conditions: Table 8A, class symbols; read-out: IC50 Chymase
T4 construct: purchased Enzo Lifescience BML-SE281
T4 sequence (P23946 22-247): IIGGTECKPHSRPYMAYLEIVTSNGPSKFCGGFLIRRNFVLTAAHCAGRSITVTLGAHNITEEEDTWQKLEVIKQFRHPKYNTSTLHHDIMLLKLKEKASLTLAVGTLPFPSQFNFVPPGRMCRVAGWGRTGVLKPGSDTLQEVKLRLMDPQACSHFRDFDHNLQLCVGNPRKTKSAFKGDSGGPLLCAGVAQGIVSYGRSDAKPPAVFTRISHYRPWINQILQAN
Summary of the method: as §1

Neutrophil elastase = molecular target: T5, Neutrophil elastase (Homo sapiens, UniProt P08246); assay: Serine protease inhibition: neutrophil elastase; assay type: biochemical, mammalian; conditions: Table 8B; read-out: IC50 Neutrophil elastase
T5 construct: purchased Calbiochem 324681
T5 sequence (P08246 30-267): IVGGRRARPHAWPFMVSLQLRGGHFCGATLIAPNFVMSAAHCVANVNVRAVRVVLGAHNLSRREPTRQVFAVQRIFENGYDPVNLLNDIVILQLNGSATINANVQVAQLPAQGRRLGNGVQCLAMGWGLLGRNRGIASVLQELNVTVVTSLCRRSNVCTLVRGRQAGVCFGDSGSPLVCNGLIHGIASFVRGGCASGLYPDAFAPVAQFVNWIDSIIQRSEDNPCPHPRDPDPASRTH
Summary of the method: as §1

CathepsinA = molecular target: T6, CathepsinA (Homo sapiens, UniProt P10619); assay: Serine protease inhibition: cathepsin A; assay type: biochemical, mammalian; conditions: Table 8B; read-out: IC50 CathepsinA
T6 construct: purchased R&D Systems 1049-SE
T6 sequence (P10619 29-480): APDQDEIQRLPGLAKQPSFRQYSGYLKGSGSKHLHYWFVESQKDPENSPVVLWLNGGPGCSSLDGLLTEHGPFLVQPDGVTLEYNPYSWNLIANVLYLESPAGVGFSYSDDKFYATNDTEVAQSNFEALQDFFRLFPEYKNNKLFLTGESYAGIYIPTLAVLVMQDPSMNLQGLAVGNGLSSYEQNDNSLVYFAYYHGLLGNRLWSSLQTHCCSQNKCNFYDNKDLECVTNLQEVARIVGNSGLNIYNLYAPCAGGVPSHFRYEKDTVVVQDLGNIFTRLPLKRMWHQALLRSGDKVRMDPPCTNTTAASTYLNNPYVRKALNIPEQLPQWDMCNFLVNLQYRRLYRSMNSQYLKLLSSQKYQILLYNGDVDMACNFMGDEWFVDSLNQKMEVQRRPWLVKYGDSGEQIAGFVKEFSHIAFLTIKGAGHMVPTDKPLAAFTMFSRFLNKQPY
Summary of the method: as §1

[3] = molecular target: T7, Dipeptidyl peptidase 7 (DPP7) (Homo sapiens, UniProt Q9UHL4); assay: Serine protease inhibition: DPP7; assay type: biochemical, mammalian; conditions: Table 8B; read-out: IC50 DPP7
T7 construct: purchased R&D Systems 3438-SE
Experimental: as §2, §3

[4] = molecular target: T8, Dipeptidyl peptidase 8 (DPP8) (Homo sapiens, UniProt Q6V1X1); assay: Serine protease inhibition: DPP8; assay type: biochemical, mammalian; conditions: Table 8B; read-out: IC50 DPP8
T8 construct: purchased BPS Bioscience 80080
Summary of the method: as §1

KP1009 (CTX-M-15) = assay: Potentiation of tigemonam, strain KP1009; conditions: minimum BLI concentration inhibiting growth with 4 μg/mL tigemonam

T8 sequence (Q6V1X1 whole entry): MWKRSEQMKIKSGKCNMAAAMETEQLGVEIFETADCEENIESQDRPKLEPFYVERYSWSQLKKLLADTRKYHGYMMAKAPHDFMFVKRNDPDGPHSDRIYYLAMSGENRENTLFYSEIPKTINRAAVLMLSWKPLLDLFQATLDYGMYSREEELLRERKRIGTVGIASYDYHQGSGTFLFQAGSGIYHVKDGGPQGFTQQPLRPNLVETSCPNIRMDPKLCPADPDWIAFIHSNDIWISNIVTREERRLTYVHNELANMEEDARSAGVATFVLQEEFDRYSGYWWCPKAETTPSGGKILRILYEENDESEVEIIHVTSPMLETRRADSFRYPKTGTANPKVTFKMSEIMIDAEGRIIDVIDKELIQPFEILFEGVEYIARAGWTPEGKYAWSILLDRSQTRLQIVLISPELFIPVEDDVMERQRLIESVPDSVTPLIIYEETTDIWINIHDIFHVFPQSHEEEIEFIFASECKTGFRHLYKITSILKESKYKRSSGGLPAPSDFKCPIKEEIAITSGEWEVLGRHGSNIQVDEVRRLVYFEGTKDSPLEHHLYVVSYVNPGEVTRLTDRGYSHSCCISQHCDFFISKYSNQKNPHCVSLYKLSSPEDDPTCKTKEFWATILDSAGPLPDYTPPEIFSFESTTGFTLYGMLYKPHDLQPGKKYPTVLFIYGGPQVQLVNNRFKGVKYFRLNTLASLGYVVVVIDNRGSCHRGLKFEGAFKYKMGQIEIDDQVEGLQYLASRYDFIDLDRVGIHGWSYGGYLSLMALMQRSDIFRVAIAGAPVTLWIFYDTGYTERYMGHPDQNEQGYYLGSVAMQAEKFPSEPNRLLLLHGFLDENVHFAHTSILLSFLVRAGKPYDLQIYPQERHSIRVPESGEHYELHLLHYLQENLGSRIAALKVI
Sequence of SHV-12 (P0AD64 22-286 L31Q/G234S/E235K): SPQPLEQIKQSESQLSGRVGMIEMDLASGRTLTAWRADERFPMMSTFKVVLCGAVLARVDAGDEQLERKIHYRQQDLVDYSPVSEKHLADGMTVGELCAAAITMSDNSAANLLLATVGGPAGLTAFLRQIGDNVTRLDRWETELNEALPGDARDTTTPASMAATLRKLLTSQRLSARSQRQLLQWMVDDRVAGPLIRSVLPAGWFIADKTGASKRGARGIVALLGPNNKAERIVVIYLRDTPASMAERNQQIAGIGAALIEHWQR
T2 sequence (P00747 581-810 limits assumed, species assumed): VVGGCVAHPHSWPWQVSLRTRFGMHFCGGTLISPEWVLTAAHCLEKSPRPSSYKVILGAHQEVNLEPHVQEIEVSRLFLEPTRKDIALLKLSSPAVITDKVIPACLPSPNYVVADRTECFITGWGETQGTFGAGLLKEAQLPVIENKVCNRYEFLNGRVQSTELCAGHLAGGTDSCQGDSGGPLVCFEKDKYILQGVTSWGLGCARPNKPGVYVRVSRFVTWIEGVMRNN
T2 sequence (P00747 97-580 partner limits assumed, species assumed): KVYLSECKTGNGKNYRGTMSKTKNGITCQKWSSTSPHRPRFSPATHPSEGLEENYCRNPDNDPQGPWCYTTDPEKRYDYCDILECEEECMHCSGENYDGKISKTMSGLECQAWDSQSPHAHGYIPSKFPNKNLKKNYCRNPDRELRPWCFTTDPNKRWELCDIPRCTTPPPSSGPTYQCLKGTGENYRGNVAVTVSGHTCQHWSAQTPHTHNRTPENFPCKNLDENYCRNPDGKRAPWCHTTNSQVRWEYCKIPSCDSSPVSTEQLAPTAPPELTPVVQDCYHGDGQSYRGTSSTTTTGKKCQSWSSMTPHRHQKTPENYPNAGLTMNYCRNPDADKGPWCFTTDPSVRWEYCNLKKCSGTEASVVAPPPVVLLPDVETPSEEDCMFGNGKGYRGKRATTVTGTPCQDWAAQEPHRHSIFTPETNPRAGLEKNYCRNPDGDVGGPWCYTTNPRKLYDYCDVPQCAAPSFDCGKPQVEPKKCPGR

For `O=C(Cc1cccs1)N[C@H]1Cc2cccc(C(=O)O)c2OB1O` [CPD A, reference compound], the “AZT MPC4 CTX-M-14 KP1005” value (KP1005 (CTX-M-14)) was “Y (key: X = MIC of less than 1 μg/mL; Y = MIC of 1 μg/mL to 10 μg/mL; Z = MIC of greater than 10 μg/mL)”, the “AZT MPC4 SHV-5 ec308” value (ec308 (SHV-5) [1]) was “X (X = MIC of less than 1 μg/mL)” and the “AZT MPC4 K-2 KP1004” value (KP1004 (K-2)) was “Y (Y = MIC of 1 μg/mL to 10 μg/mL)”. The “TIG MPC4 SHV-5 ec308” value (ec308 (SHV-5) [2]) was “Y (Y = MIC of 1 μg/mL to 10 μg/mL)”, the “TIG MPC4 CMY-6 EC1010” value (EC1010 (CMY-6)) was “X (key: X = MIC of less than 1 μg/mL; Y = MIC of 1 μg/mL to 10 μg/mL; Z = MIC of greater than 10 μg/mL)” and the Ki (SHV-12) was less than 1 nM. The “PAM1032/KPC-2 Biapenem MPC64” value (PAM1032/KPC-2) was “Z (Z Greater than 40)”, the IC50 (Chymotrypsin) was less than 300 µM and the IC50 (Plasmin) was greater than 800 µM. The IC50 (Urokinase) was greater than 800 µM, the IC50 (Chymase) was less than 300 µM and the IC50 (Neutrophil elastase) was 15 to 500 µM. The IC50 (CathepsinA) was less than 15 µM, the IC50 [3] was greater than 500 µM and the IC50 [4] was 15 to 500 µM. For the same compound, the “TIG MPC4 CTX-M-15 KP1009” value (KP1009 (CTX-M-15)) was “Y (Y = MIC of 1 μg/mL to 10 μg/mL)”.
